Test results from patent publication US10485868B2, “Tn vaccine composition and method for alleviating inflammation” (TAIPEI MEDICAL UNIVERSITY, priority 2017, dated 2019).

Assays:
COSMC gene = assay: Bisulfite pyrosequencing of COSMC gene promoter methylation in HGFs; assay type: cell-based, human
Description: (§1) FIG. 9A. Effect of TNF-α and demethylation agents on the methylation level of COSMC gene in HGFs. The comparison of methylation changes is in the HGFs which were treated with or without TNF-α and demethylation agents. The UCSC genome browser illustrated the orientation and the first exon of COSMC (blue bar), GC percent (black scale bar), CpG islands (green bar) and the sequencing region of bisulfite pyrosequencing (COSMC_py02, black bar). […] FIG. 9B. HGFs were co-treated with purified TNF-α and different concentrations of 5-aza-dC (0, 1, 2 and 5 μM) for 24 hours and then immunofluorescent stained with rabbit anti-Tn antibody (in red) and DAPI (in blue). Magnification 630×; Scale bar, 50 μm.

[1] = test system: human gingival fibroblasts (HGFs); assay: Tn expression in HGFs, immunofluorescent staining with anti-Tn antibody; assay type: cell-based; conditions: for Tn levels in HGFs, responsiveness to purified cytokine: 0, 10, 30, 100 ng/ml for 24 hours; for Tn levels in HGFs: TNF-α 30 ng/ml
Description: FIG. 6A. Immunohistochemical analysis of Tn antigen in inflammatory tissues (top) and normal tissues (bottom). Tn staining in atherosclerotic aorta (left; labeled Aorta), bronchitis tissue (middle; labeled Bronchi), and periodontitis tissue (right; labeled Gingiva). Brown color represents Tn antigen expression. FIG. 6B. HGFs were treated with conditioned media from U937 cells stimulated with LPS (0, 10, 30 and 100 ng/ml; 24 hours) for 24 hours and then stained with purified rabbit anti-Tn antibody (in red) and DAPI (in blue). FIG. 6C. U937 cells were treated with LPS (0, 10, 30 and 100 ng/ml) for 24 hours, the secretions of TNF-α were analyzed by ELISA. Original magnifications (100×). Scale bar, 50 μm. FIG. 6D. U937 cells were treated with LPS (0, 10, 30 and 100 ng/ml) for 24 hours, the secretions of IL-6 were analyzed by ELISA. Original magnifications (100×). Scale bar, 50 μm. FIG. 6E. U937 cells were treated with LPS (0, 10, 30 and 100 ng/ml) for 24 hours, the secretions of IL-1β were analyzed by ELISA. Original magnifications (100×). Scale bar, 50 μm.
FIGS. 7A and 7B show pro-inflammatory cytokines, TNF-α and IL-6, up-regulates Tn levels in HGFs. FIG. 7A. The effect of pro-inflammatory cytokines on Tn expression in HGFs. HGFs were treated with purified TNF-α, IL-6 and IL-1β at the concentration of 0, 10, 30, and 100 ng/ml for 24 hours and then stained with purified rabbit anti-Tn antibody (in red) and DAPI (in blue). Original magnification (100×); scale bar, 50 μm. FIG. 7B. Time course analysis of Tn expressions in HGFs after TNF-α treatment. HGFs were treated with purified TNF-α at the concentration of 30 ng/ml for 4, 8, 12, 24 and 48 hours and then stained with purified rabbit anti-Tn antibody (in red) and DAPI (in blue) (Magnifications 630×; scale bar, 50 μm). The experiments were repeated at least three times.
as §1

COSMC = assay: qPCR of COSMC mRNA in HGFs; assay type: cell-based, human; conditions: 100 ng/ml, 24 hours
Description: (§2) FIG. 8A. Effect of TNF-α and demethylation agents (5-aza-dC) on mRNA expression of COSMC and T-synthase in HGFs. qPCR was used to analyze COSMC and T-synthase mRNA expression in HGFs upon TNF-α and 5-aza-dC treatment. The mRNA expression of COSMC and T-synthase was normalized to GAPDH and statistically analyzed. (*: p<0.05 compared with TNF-α only) Calculations of relative gene expression (normalized to GAPDH reference gene) were performed according to the ΔΔCT method. Fidelity of the PCR reaction was determined by melting temperature analysis. FIG. 8B. Western blotting was used to analyze the protein levels of Cosmc and T-synthase upon 6 and 24 hours of TNF-α treatment. FIG. 8C. and FIG. 8D. HGFs were treated with purified TNF-α for 6 or 24 hours and then immunofluorescent stained with anti-Cosmc (in red) and anti-T-synthase antibodies (in green) and DAPI (in blue). Original magnification (100×); scale bar, 50 μm.

T-synthase = assay: qPCR of T-synthase mRNA in HGFs; assay type: cell-based, human; conditions: 100 ng/ml, 24 hours
Description: as §2

NF-κB P65 = assay: Immunohistochemistry of NF-κB in lung; assay type: in vivo, mice; conditions: hyperoxia group immunized with carrier protein compared with control and Tn-treated hyperoxia groups
Description: After a routine deparaffinization step, heat-induced epitope retrieval was performed by immersing the slides in 0.01 mol/L sodium citrate buffer (pH 6.0). To block the endogenous peroxidase activity and nonspecific antibody binding, sections were first preincubated for 1 hour at room temperature in 0.1 mol/L PBS containing 10% normal goat serum and 0.3% H2O2 before incubating for 20 hours at 4° C. with the rabbit polyclonal anti-NF-κB P65 (1:50 dilution; Abcam Inc., Cambridge, Mass., USA) as primary antibody. The sections were then treated for 1 hour at room temperature with biotinylated goat anti-rabbit IgG (1:200, Vector, Calif., USA). This was followed by reaction with the reagents from an ABC kit (Avidin-Biotin Complex, Vector, Calif., USA) according to the manufacturer's recommendations, and the reaction products were visualized by diaminobenzidine substrate kit (Vector, Calif., USA). All immunostained sections were viewed and photographed by Olympus BX 43.

C57BL/6NCrlBltw mice = assay: Serum anti-Tn antibody titers by ELISA after immunization; assay type: in vivo; conditions: mice immunized subcutaneously with adjuvant, versus background before immunization
Description: Five-week-old female C57BL/6NCrlBltw mice were subcutaneously immunized with Tn vaccine at a dose of 20 μg or carrier protein (10 μg of mFc(Cys42-Tn)Histag2) in the presence of adjuvant in 100 μl for four times at biweekly intervals and one additional immunization at one week later after the fourth immunization. Blood was withdrawn from facial vein for anti-Tn antibody titer measurement using enzyme-linked immunosorbent assay (ELISA) on days 0, 42, and 49. Four days after the last immunization, mice were exposed to room air (RA) or oxygen-enriched atmosphere (100% O2) for up to 96 hours. Oxygen exposures was carried out in a transparent 60×50×40-cm Plexiglas chamber into which oxygen was continuously delivered at 4 l/min and oxygen levels were monitored with a ProOx Model 110 monitor (NexBiOxy, Hsinchu, Taiwan) and humidity was checked daily and the value was 60-80%. We obtained four study groups as follows: carrier protein+RA (n=6), Tn vaccine+RA (n=6), carrier protein+O2 (n=6), and Tn vaccine+O2 (n=5). Mice were deeply anesthetized with an overdose of isoflurane after 96 hours O2 treatment. […] This washing procedure was repeated two more times for each animal, with the three washes being pooled, and the total volume recorded. […]
GST(Cys6-Tn) was coated on 96-well flat-bottomed plates (Falcon Labware, Lincoln Park, N.J., USA) at a concentration of 1.5 μg/ml. […] Absorbance was read at 410 nm.

Nc1ncn([C@H]2C[C@H](O)[C@@H](CO)O2)c(=O)n1 [5-aza-dC, reference compound]
TNF-α-induced COSMC gene hypermethylation (COSMC gene; HGFs treated with TNF-α and demethylation agent): can be suppressed
TNF-α-induced Tn expression ([1]; HGFs co-treated with TNF-α and 0, 1, 2, 5 μM for 24 hours): can be suppressed

tumor necrosis factor-α [TNF-α]
COSMC mRNA in HGFs (COSMC): significantly down-regulated
methylation of four CpG sites in the promoter of the COSMC gene (COSMC gene; TNF-α treatment of HGFs): significantly hypermethylated
T-synthase mRNA level in HGFs (T-synthase): did not significantly alter
Tn levels in HGFs, responsiveness to purified cytokine [1]: most responsive
Tn levels in HGFs ([1]; 8 to 12 hrs): Gradual increase
Tn levels in HGFs ([1]; 4 hrs): essentially unchanged
Tn levels in HGFs ([1]; after 24 hours): gradually decreased
Tn levels in HGFs ([1]; after 48 hours): markedly decreased

interleukine-6 [IL-6]
Tn levels in HGFs, responsiveness to purified cytokine [1]: moderately responsive

Fc fragment-7 repeats of Pro-Cys-Cys-Gly-Cys-Cys-Gly-Cys-Gly-Cys-N-succinimidyl-6-maleimidocaproate [carrier protein]
NFκB immunoreactivity in lung (NF-κB P65): more intense NFκB immunoreactivity
serum anti-Tn antibody titers (C57BL/6NCrlBltw mice): low serum Tn antibody titers
serum anti-Tn antibody titers (C57BL/6NCrlBltw mice; listed as carrier polypeptide): background serum anti-Tn antibody levels

interleukin-1β [IL-1β]
Tn levels in HGFs, responsiveness to purified cytokine [1]: not responsive
